Data: ChEMBL document CHEMBL1134625 (J Med Chem, 2001)

Columns and labels:
[1] = molecular target: D(1A) dopamine receptor (Homo sapiens, UniProt P21728)
[2] = molecular target: 5-hydroxytryptamine receptor 6 (Homo sapiens, UniProt P50406)
[3] = molecular target: Voltage-gated L-type calcium channel (Homo sapiens, UniProt Q13936+Q13698+Q01668+O60840); format: protein assay
[4] = molecular target: 5-hydroxytryptamine receptor 5A (Homo sapiens, UniProt P47898)
[5] = molecular target: D(1B) dopamine receptor (Homo sapiens, UniProt P21918)
[6] = molecular target: T1, Sodium-dependent dopamine transporter (Homo sapiens, UniProt Q01959)
[7] = molecular target: T2, Adrenergic receptor alpha-1 (Homo sapiens, UniProt P35348+P25100+P35368); format: protein assay
T2 sequence (P35348 whole entry): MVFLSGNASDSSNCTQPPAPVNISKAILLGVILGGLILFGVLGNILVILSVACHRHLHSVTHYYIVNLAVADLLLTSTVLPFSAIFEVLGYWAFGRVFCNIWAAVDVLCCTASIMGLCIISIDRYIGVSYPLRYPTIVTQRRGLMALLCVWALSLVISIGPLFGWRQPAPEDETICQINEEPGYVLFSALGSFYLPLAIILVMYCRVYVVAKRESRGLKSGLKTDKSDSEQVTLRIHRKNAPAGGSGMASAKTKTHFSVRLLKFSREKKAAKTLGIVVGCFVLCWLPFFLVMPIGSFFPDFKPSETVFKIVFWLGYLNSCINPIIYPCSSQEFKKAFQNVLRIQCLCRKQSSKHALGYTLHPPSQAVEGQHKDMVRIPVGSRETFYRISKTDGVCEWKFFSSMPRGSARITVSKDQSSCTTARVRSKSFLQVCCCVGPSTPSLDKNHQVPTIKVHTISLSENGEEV
T2 sequence (P25100 whole entry): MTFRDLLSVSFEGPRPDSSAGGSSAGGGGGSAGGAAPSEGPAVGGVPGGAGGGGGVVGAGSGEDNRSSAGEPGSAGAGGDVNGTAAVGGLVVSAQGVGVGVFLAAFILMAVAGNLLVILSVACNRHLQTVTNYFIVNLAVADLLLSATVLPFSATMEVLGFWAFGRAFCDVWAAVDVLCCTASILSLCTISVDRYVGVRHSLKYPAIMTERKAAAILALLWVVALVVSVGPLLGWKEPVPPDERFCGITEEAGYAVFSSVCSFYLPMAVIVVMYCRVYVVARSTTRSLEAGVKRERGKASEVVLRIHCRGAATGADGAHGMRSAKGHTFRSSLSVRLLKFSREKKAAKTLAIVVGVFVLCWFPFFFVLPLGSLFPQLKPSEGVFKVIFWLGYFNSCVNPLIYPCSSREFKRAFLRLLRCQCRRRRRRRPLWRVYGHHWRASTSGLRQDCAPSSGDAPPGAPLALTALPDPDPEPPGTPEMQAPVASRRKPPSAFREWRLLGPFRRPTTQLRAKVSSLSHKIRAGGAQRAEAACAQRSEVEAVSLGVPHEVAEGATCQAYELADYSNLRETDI
T2 sequence (P35368 whole entry): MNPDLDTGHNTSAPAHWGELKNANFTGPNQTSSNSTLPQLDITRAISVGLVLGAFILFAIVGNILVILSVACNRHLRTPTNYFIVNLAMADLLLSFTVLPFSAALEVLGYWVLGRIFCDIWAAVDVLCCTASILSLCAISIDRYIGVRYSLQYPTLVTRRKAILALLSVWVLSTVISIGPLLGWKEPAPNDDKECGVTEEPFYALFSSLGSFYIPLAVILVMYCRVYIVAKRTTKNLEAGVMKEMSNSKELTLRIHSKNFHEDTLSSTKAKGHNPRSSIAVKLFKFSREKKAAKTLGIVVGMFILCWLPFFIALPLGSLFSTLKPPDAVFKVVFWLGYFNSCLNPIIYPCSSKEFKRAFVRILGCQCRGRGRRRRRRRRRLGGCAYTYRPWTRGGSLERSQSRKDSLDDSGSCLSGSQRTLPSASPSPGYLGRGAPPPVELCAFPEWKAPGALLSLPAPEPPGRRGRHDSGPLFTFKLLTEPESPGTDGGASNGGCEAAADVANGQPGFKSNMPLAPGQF

[8] = molecular target: 5-hydroxytryptamine receptor 2A (Homo sapiens, UniProt P28223)
[9] = molecular target: T3, D(4) dopamine receptor (Homo sapiens, UniProt P21917)
T3 sequence (P21917 whole entry): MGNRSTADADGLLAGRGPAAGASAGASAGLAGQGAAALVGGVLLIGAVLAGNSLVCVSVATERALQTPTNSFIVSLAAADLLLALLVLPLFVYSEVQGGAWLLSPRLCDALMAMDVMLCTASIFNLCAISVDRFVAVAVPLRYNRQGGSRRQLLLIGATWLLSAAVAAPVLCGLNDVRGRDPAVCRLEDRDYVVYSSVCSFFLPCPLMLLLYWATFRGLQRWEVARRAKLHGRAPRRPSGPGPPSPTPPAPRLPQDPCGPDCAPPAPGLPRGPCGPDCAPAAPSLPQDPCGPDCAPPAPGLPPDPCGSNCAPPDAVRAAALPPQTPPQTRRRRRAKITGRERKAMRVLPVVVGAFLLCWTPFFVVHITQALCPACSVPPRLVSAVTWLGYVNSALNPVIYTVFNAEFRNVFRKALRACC

[10] = molecular target: 5-hydroxytryptamine receptor 7 (Homo sapiens, UniProt P34969)
[11] = molecular target: D(2) dopamine receptor (Homo sapiens, UniProt P14416)
[12] = molecular target: Histamine H1 receptor (Homo sapiens, UniProt P35367)
[13] = molecular target: Histamine H2 receptor (Homo sapiens, UniProt P25021)
[14] = molecular target: T4, 5-hydroxytryptamine receptor 1A (Homo sapiens, UniProt P08908)
T4 sequence (P08908 whole entry): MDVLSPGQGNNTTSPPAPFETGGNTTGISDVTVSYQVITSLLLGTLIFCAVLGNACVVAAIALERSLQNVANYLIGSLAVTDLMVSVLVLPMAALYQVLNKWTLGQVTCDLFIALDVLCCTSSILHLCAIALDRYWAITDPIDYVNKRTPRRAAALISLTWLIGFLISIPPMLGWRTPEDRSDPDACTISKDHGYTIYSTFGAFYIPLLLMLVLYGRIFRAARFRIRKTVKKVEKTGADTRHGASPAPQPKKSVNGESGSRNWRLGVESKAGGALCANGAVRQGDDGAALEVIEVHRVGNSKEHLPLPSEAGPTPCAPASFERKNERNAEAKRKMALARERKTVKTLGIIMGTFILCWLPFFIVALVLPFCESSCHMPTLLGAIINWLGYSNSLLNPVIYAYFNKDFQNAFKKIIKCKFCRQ

[15] = molecular target: D(3) dopamine receptor (Homo sapiens, UniProt P35462)
[16] = molecular target: T5, Adenosine receptor A3 (Homo sapiens, UniProt P0DMS8)
T5 sequence (P0DMS8 whole entry): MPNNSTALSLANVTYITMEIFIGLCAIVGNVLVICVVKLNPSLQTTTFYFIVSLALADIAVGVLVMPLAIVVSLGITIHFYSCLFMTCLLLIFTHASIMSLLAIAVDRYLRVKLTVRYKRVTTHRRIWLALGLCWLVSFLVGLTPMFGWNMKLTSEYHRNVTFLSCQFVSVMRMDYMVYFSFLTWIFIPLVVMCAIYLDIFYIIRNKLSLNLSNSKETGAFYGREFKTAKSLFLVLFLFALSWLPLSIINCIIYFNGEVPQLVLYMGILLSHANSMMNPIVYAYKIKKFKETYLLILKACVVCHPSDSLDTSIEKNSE

[17] = molecular target: Substance-P receptor (Homo sapiens, UniProt P25103)
[18] = molecular target: Substance-K receptor (Homo sapiens, UniProt P21452)
[19] = molecular target: T6, 5-hydroxytryptamine receptor 2C (Homo sapiens, UniProt P28335)
T6 sequence (P28335 whole entry): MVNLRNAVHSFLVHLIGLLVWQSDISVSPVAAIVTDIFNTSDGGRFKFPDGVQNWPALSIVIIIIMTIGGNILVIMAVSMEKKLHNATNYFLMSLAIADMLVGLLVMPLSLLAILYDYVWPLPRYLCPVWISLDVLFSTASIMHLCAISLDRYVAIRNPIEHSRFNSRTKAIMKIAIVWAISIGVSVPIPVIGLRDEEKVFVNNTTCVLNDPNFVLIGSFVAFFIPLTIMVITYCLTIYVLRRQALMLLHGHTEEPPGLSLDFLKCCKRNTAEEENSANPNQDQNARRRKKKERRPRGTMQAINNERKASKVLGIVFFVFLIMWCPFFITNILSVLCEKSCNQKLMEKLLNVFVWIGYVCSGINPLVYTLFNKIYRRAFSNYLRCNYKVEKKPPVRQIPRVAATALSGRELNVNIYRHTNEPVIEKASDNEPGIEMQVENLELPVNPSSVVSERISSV

[20] = molecular target: Vasopressin V1a receptor (Homo sapiens, UniProt P37288)
[21] = molecular target: T1, Sodium-dependent dopamine transporter; remark: listed apart in the source
[22] = molecular target: Adenosine receptor A1 (Homo sapiens, UniProt P30542)
Chain of Adenosine receptor A1 (P30542 whole entry): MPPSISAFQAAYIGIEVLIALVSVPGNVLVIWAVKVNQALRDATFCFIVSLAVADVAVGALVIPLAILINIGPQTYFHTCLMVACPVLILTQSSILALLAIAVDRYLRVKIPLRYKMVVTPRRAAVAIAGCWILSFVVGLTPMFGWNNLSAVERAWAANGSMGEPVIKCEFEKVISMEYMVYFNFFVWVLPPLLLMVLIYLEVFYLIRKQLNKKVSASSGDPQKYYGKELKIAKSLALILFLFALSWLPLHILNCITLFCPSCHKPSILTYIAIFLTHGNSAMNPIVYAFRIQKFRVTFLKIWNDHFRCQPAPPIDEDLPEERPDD

Chain of D(2) dopamine receptor (P14416 whole entry): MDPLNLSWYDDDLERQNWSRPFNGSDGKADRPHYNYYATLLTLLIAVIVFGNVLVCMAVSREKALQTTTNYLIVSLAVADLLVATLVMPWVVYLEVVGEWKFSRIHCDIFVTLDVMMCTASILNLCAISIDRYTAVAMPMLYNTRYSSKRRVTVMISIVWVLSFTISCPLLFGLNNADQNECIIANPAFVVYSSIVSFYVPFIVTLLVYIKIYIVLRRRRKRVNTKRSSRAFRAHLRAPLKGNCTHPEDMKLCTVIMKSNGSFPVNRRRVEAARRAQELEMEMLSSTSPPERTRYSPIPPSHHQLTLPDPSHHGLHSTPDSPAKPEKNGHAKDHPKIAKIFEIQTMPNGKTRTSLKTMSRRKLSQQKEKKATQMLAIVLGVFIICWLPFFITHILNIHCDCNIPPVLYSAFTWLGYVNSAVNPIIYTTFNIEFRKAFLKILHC
T1 sequence (Q01959 whole entry): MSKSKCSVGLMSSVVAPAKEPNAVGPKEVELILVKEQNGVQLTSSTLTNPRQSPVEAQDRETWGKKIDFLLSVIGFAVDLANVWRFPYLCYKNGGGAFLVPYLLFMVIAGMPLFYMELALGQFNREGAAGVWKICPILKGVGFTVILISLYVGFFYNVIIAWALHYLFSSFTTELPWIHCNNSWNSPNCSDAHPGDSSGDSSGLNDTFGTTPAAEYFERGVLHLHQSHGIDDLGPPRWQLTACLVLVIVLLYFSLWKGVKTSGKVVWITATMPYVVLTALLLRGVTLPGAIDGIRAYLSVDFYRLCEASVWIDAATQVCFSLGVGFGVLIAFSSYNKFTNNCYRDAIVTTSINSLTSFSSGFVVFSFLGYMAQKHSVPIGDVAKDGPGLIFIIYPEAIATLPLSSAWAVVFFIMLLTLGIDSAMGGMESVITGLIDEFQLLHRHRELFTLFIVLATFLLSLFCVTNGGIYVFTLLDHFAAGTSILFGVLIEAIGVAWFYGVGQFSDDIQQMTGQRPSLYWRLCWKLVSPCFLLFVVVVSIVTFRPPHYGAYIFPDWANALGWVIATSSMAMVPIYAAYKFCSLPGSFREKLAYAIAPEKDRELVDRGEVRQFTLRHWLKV
Chain of Histamine H2 receptor (P25021 whole entry): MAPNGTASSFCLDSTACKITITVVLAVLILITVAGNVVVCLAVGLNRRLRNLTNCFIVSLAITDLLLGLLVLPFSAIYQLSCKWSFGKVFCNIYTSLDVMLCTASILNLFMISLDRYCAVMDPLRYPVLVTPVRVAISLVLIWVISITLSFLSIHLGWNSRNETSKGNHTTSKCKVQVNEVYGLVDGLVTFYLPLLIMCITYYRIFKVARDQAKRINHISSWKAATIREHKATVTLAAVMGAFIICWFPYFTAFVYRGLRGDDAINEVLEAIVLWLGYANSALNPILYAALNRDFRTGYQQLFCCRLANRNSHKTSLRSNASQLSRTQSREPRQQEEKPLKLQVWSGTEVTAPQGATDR
Chain of D(1B) dopamine receptor (P21918 whole entry): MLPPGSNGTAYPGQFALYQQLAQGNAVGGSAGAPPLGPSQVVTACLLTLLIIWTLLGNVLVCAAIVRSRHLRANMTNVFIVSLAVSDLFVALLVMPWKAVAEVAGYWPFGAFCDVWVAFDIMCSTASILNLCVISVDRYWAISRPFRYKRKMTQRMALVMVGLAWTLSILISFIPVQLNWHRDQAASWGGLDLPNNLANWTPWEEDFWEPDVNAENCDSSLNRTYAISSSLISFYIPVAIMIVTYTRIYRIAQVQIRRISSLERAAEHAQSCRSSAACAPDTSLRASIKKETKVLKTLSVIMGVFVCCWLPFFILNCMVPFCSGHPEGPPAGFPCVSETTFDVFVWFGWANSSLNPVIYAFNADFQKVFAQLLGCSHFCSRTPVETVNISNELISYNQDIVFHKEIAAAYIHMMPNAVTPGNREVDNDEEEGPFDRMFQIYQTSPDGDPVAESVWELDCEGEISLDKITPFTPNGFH
Chain of 5-hydroxytryptamine receptor 2A (P28223 whole entry): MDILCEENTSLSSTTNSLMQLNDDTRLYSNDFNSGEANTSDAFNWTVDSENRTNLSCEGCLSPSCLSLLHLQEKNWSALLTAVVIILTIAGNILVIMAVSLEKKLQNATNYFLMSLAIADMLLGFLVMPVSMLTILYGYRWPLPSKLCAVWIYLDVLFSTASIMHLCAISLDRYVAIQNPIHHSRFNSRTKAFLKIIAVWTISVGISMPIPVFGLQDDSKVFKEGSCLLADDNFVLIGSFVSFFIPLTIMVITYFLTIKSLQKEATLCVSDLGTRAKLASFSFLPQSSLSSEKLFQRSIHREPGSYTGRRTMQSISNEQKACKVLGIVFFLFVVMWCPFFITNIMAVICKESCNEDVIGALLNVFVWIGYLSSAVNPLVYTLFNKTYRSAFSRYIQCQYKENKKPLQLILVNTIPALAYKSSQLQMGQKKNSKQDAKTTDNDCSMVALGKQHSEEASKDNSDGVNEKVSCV
Chain of D(3) dopamine receptor (P35462 whole entry): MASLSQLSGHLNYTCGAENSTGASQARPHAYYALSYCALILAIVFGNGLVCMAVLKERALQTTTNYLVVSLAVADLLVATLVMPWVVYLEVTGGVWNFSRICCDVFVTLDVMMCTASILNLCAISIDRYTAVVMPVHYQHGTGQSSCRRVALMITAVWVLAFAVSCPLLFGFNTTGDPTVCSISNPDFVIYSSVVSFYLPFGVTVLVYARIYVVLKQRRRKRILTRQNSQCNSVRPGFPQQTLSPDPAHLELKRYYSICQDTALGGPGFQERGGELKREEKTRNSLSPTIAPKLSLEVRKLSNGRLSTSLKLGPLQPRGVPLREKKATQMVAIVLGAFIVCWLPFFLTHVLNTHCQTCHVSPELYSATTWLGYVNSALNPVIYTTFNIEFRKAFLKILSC
Chain of Histamine H1 receptor (P35367 whole entry): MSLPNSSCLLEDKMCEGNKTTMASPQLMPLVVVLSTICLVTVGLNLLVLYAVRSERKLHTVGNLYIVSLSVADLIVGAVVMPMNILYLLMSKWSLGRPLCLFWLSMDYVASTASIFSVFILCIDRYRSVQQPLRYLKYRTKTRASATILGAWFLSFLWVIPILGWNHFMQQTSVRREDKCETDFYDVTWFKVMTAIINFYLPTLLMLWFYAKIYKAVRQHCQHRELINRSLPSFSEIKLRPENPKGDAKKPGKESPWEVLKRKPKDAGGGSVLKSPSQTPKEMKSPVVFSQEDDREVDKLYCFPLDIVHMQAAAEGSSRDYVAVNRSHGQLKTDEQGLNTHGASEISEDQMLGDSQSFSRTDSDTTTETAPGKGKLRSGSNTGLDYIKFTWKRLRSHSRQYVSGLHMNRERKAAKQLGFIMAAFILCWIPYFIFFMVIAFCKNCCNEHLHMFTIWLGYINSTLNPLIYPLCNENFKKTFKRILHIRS
Chain of D(1A) dopamine receptor (P21728 whole entry): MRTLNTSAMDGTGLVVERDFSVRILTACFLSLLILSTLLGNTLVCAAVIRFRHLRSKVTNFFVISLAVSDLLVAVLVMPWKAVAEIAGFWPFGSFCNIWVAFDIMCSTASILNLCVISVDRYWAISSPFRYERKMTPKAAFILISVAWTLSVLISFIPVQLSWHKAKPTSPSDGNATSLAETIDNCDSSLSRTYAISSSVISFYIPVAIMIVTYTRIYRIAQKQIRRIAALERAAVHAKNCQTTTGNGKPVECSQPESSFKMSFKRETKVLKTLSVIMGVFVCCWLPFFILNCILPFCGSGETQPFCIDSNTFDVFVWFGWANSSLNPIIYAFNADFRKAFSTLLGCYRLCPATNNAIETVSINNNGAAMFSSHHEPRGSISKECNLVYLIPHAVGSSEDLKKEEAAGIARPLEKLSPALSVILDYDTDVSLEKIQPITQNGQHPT
Chain of 5-hydroxytryptamine receptor 7 (P34969 whole entry): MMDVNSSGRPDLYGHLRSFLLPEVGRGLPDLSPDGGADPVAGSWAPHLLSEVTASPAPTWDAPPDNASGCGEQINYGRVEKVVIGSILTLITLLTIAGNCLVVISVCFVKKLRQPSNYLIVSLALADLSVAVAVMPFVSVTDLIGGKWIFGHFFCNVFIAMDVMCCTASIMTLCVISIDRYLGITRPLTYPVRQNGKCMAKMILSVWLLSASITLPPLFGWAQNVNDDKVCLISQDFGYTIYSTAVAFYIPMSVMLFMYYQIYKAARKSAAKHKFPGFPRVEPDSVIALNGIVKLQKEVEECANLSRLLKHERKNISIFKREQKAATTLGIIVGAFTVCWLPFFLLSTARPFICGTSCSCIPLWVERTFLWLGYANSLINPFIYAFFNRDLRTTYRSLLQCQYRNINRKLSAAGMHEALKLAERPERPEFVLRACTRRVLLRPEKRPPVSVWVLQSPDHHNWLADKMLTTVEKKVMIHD
Chain of 5-hydroxytryptamine receptor 6 (P50406 whole entry): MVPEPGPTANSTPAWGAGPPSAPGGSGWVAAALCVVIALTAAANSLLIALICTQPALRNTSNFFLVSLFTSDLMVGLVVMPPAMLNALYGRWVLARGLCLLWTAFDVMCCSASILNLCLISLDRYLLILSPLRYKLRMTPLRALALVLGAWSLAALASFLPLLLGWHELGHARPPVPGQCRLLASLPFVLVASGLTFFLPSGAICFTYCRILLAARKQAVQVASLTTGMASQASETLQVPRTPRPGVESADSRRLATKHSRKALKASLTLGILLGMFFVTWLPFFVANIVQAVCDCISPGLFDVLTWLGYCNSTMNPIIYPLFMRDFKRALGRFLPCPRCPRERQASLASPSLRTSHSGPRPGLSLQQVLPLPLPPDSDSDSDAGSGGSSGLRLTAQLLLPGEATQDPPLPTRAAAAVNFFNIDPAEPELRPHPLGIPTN

SMILES	IC50 [2] [nM]	IC50 [3] [nM]	IC50 [5] [nM]	IC50 [6] [nM]	IC50 [7] [nM]	IC50 [8] [nM]	IC50 [9] [nM]	IC50 [10] [nM]	IC50 [12] [nM]	IC50 [13] [nM]	IC50 [14] [nM]	IC50 [15] [nM]	IC50 [16] [nM]	IC50 [19] [nM]	other results
N#Cc1ccc(CCOC(=O)N2CCN(CCCC(c3ccc(F)cc3)c3ccc(F)cc3)CC2)cc1	2280	1720	988	996	1100	715	776	1440	795	1030	1020	195	3480	–	IC50 [1]: 1120 nM; IC50 [4]: 3380 nM; IC50 [11]: 2240 nM
CCOc1ccc(CCNC(=O)N2CCN(CCCC(c3ccc(F)cc3)c3ccc(F)cc3)CC2)cc1	800	860	1450	994	993	231	–	2040	1820	757	–	341	2460	1420	IC50 [17]: 839 nM; IC50 [18]: 5180 nM; IC50 [1]: 967 nM; IC50 [11]: 2890 nM
O=C(CCc1ccc(F)cc1)N1CCN(CCCC(c2ccc(F)cc2)c2ccc(F)cc2)CC1	1350	4300	3020	1280	1170	1030	716	1170	1660	1340	1110	977	5080	–	–
O=C(OCCc1ccc(F)cc1)N1CCN(CCCC(c2ccc(F)cc2)c2ccc(F)cc2)CC1	1530	2730	1550	1650	1640	1060	338	726	1280	1250	1140	456	4210	3450	IC50 [11]: 2620 nM
CCOc1ccc(CCOC(=O)N2CCN(CCCc3ccccc3)CC2)cc1	–	–	–	–	–	980	–	1430	–	–	–	–	4180	–	–
O=C(OC1CCc2ccccc21)N1CCC2(CC1)C(=O)NCN2c1ccccc1 (stereo not given)	–	–	–	–	–	–	–	–	–	–	–	3180	–	345	IC50 [20]: 5160 nM
O=c1[nH]c2ccccc2n(C2CCN(Cc3cc4c(cc3Cl)OCO4)CC2)c1=O	–	–	–	1520	–	–	6550	–	–	–	–	–	–	–	–
O=C(OCc1cccc(Oc2ccccc2)c1)N1CCC2(CC1)C(=O)NCN2c1ccccc1	–	–	–	–	–	–	–	–	–	–	2080	–	1510	652	IC50 [21]: 2940 nM
O=C(NCCCn1c(=O)[nH]c2ccccc21)OCc1cc2c(cc1Cl)OCO2	–	–	–	–	–	–	–	–	–	–	–	–	3330	–	IC50 [22]: 344 nM
O=C(CCCc1ccccc1)N1CCN(CCCC(c2ccc(F)cc2)c2ccc(F)cc2)CC1	7780	2350	1860	954	2190	950	280	2130	1930	1980	–	758	–	4070	IC50 [1]: 2750 nM; IC50 [4]: 5520 nM
N#Cc1ccc(CCOC(=O)N2CCN(CCCc3ccccc3)CC2)cc1	–	–	–	–	–	854	1410	–	280	–	1570	–	–	–	–
COc1ccc(SCCC(=O)N2CCN(Cc3cccc(Oc4ccc(Cl)cc4)c3)CC2)cc1	–	–	–	–	–	–	–	–	–	–	–	–	3750	–	–
COc1ccc(CN2CCN(C(=O)CCn3cc(C)c4ccccc43)CC2)cc1OCc1ccccc1	–	4840	–	–	–	–	–	–	–	–	–	–	3730	–	–
